# According to ChEMBL document CHEMBL1146926, “Fluorescent non-imidazole histamine H3 receptor ligands with nanomolar affinities” (Bioorg Med Chem Lett, 2006):
# Target: Histamine H3 receptor (Homo sapiens, UniProt Q9Y5N1)
# Test: Displacement of [125I]iodoproxyfan from human histamine H3 receptor expressed in CHOK1 cells
# Format: cell-based, CHO-K1
# Chain of Histamine H3 receptor (Q9Y5N1 whole entry): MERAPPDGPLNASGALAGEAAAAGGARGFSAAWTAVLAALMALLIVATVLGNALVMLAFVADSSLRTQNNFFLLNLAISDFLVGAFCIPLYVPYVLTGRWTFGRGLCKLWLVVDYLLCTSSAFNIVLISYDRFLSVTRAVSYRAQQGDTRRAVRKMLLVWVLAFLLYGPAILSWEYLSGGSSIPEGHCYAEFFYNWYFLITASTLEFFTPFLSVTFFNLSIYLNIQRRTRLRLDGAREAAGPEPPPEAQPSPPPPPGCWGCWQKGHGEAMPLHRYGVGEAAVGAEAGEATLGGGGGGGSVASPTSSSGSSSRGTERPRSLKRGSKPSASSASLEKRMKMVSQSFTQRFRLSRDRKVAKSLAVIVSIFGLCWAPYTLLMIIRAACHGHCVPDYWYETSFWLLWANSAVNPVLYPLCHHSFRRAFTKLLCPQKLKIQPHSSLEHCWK
row,Ki [nM],Compound
1,178,N#Cc1c2ccccc2cn1CCCCN1CCCCC1
2,31,N#Cc1c2ccccc2cn1CCCCCN1CCCCC1
3,351,N#Cc1c2ccccc2cn1CCCN1CCCCC1
4,31,N#Cc1c2ccccc2cn1CCCCCCN1CCCCC1

row,Compound,Ki [nM]
1,O=[N+]([O-])c1ccc(NCCCCN2CCCCC2)c2nonc12,170
2,O=[N+]([O-])c1ccc(NCCCCCN2CCCCC2)c2nonc12,11
